Measured values: patent US20230271950A1, “ANTIBACTERIAL PICOLINAMIDE COMPOUNDS” (University of Notre Dame Du Lac, priority 2020, published 2023)
≈ marks a conversion by molar mass, not a printed value. Where two headings read alike, the source gives them in different places.

Key:
[1] = test system: C. difficile; assay: MIC by broth microdilution against C. difficile strains; assay type: cell-based, Clostridioides difficile; conditions: for MIC: Clostridioides difficile, ATCC43255, ATCC 43255, ribotype 087, read-out: MIC C. difficile; for Selectivity: MIC MRSA/MIC C. difficile, Table 3
[2] = test system: MRSA (NRS70, NRS119); assay: MIC against MRSA strains; assay type: cell-based, Staphylococcus aureus; conditions: Staphylococcus aureus, NRS70 strain, read-out: MIC MRSA
[3] = test system: S. aureus ATCC29213; assay: MIC against MSSA; assay type: cell-based, Staphylococcus aureus; conditions: Staphylococcus aureus; MSSA ATCC 29213; Table 10, unit inferred; read-out: Activity (MIC) against S. aureus
[4] = test system: E. faecium NCTC7171; assay: MIC against E. faecium; assay type: cell-based, Enterococcus faecium; conditions: Enterococcus faecium, NCTC7171; E. faecium NCTC 7171; Table 10, unit inferred; read-out: Activity (MIC) against E. faecium

| Structure (SMILES) | MIC ([1]; Table 2 (SAR^1)) [µg/mL] | MIC ([2]; Table 2 (SAR^1)) [µg/mL] | MIC [3] [µg/mL] | MIC [4] [µg/mL] | MIC ([1]; Table 3 (SAR^2 and SAR^3)) [µg/mL] | Selectivity [1] | MIC ([2]; Table 3 (SAR^2 and SAR^3)) [µg/mL] |
| --- | --- | --- | --- | --- | --- | --- | --- |
| Cc1coc(NC(=O)c2ccnc(-c3ccc(Cl)c(Cl)c3)c2)n1 [Compound 14, 2-(3,4-Dichlorophenyl)-N-(4-methyloxazol-2-yl)isonicotinamide] | 0.25 (≈ 0.718 µM) | 0.06 (≈ 0.172 µM) | 0.06 (≈ 0.172 µM) | 0.25 (≈ 0.718 µM) | – | – | – |
| O=C(Nc1ncco1)c1ccnc(-c2cnc3ccccc3c2)c1 [Compound 61, N-(Oxazol-2-yl)-2-(quinolin-3-yl)isonicotinamide] | – | – | – | – | 4 (≈ 12.6 µM) | 4 | 16 (≈ 50.6 µM) |
| O=C(Nc1ncco1)c1ccnc(N2CCOCC2)c1 [Compound 62, 2-Morpholino-N-(oxazol-2-yl)isonicotinamide] | – | – | – | – | 128 (≈ 467 µM) | 1 | 128 (≈ 467 µM) |
| O=C(Nc1ncco1)c1ccnc(C(F)(F)F)c1 [Compound 63, N-(Oxazol-2-yl)-2-(trifluoromethyl)isonicotinamide] | – | – | – | – | 4 (≈ 15.6 µM) | 4 | 16 (≈ 62.2 µM) |
| O=C(Nc1ncco1)c1ccnc(OCCC(F)(F)F)c1 [Compound 65, N-(Oxazol-2-yl)-2-(3,3,3-trifluoropropoxy)isonicotinamide] | – | – | – | – | 4 (≈ 13.3 µM) | 2 | 8 (≈ 26.6 µM) |
| O=C(Nc1ncco1)c1ccnc(-c2ccc(F)c(Cl)c2)c1F [Compound 67, 2-(3-Chloro-4-fluorophenyl)-3-fluoro-N-(oxazol-2-yl)isonicotinamide] | – | – | – | – | 1 (≈ 2.98 µM) | 1 | 1 (≈ 2.98 µM) |
| O=C(Nc1ncco1)c1ccnc(-c2ccc(F)c(F)c2)c1F [Compound 68, 2-(3,4-Difluorophenyl)-3-fluoro-N-(oxazol-2-yl)isonicotinamide] | – | – | – | – | 2 (≈ 6.26 µM) | 2 | 4 (≈ 12.5 µM) |
| O=C(Nc1ncco1)c1ccnc(-c2cccc(Cl)c2)c1F [Compound 69, 2-(3-Chlorophenyl)-3-fluoro-N-(oxazol-2-yl)isonicotinamide] | – | – | – | – | 1 (≈ 3.15 µM) | 2 | 2 (≈ 6.3 µM) |
| O=C(Nc1ncco1)c1cc(-c2ccc(F)c(F)c2)ncc1F [Compound 72, 2-(3,4-Difluorophenyl)-5-fluoro-N-(oxazol-2-yl)isonicotinamide] | – | – | – | – | 0.5 (≈ 1.57 µM) | 8 | 4 (≈ 12.5 µM) |
| O=C(Nc1ncco1)c1cc(-c2ccc(F)c(Cl)c2)ncc1F [Compound 73, 2-(3-Chloro-4-fluorophenyl)-5-fluoro-N-(oxazol-2-yl)isonicotinamide] | – | – | – | – | 0.5 (≈ 1.49 µM) | 4 | 2 (≈ 5.96 µM) |
| O=C(Nc1ncco1)c1cc(-c2ccc(Cl)c(F)c2)ncc1F [Compound 74, 2-(4-Chloro-3-fluorophenyl)-5-fluoro-N-(oxazol-2-yl)isonicotinamide] | – | – | – | – | 0.25 (≈ 0.745 µM) | 8 | 2 (≈ 5.96 µM) |
| O=C(Nc1ncco1)c1cccc(-c2ccc(Cl)c(Cl)c2)n1 [Compound 75, 6-(3,4-Dichlorophenyl)-N-(oxazol-2-yl)picolinamide] | – | – | – | – | ≥ 16 | ≤ 0.125 | 2 (≈ 5.99 µM) |
| O=C(Nc1ncco1)c1cccc(-c2cccc(Cl)c2)n1 [Compound 76, 6-(3-Chlorophenyl)-N-(oxazol-2-yl)picolinamide] | – | – | – | – | 8 (≈ 26.7 µM) | 0.5 | 4 (≈ 13.3 µM) |
| O=C(Nc1ncco1)c1cccc(-c2ccc(F)c(Cl)c2)n1 [Compound 77, 6-(3-Chloro-4-fluorophenyl)-N-(oxazol-2-yl)picolinamide] | – | – | – | – | 8 (≈ 25.2 µM) | 1 | 8 (≈ 25.2 µM) |
| O=C(Nc1ncco1)c1cccc(-c2ccc(Cl)c(F)c2)n1 [Compound 78, 6-(4-Chloro-3-fluorophenyl)-N-(oxazol-2-yl)picolinamide] | – | – | – | – | ≥ 16 | ≤ 8 | 128 (≈ 403 µM) |
| O=C(Nc1ncco1)c1cccc(-c2ccc(F)cc2)n1 [Compound 79, 6-(4-Fluorophenyl)-N-(oxazol-2-yl)picolinamide] | – | – | – | – | ≥ 16 | ≤ 2 | 32 (≈ 113 µM) |
| O=C(Nc1ncco1)c1cccc(-c2ccc(F)c(F)c2)n1 [Compound 80, 6-(3,4-Difluorophenyl)-N-(oxazol-2-yl)picolinamide] | – | – | – | – | ≥ 16 | ≤ 4 | 64 (≈ 212 µM) |

| Structure (SMILES) | MIC ([1]; Table 2 (SAR^1)) [µg/mL] | MIC ([2]; Table 2 (SAR^1)) [µg/mL] | MIC [3] [µg/mL] | MIC [4] [µg/mL] | MIC ([1]; Table 3 (SAR^2 and SAR^3)) [µg/mL] | Selectivity [1] | MIC ([2]; Table 3 (SAR^2 and SAR^3)) [µg/mL] |
| --- | --- | --- | --- | --- | --- | --- | --- |
| O=C(Nc1ncco1)c1cncc(-c2ccc(F)c(Cl)c2)c1 [Compound 81, 5-(3-Chloro-4-fluorophenyl)-N-(oxazol-2-yl)nicotinamide] | – | – | – | – | 2 (≈ 6.3 µM) | 4 | 8 (≈ 25.2 µM) |
| O=C(Nc1ncco1)c1cncc(-c2ccc(F)c(F)c2)c1 [Compound 82, 5-(3,4-Difluorophenyl)-N-(oxazol-2-yl)nicotinamide] | – | – | – | – | 4 (≈ 13.3 µM) | 2 | 8 (≈ 26.6 µM) |
| O=C(Nc1ncco1)c1ccnc(-c2ccc(Cl)c(Cl)c2)n1 [Compound 83, 2-(3,4-Dichlorophenyl)-N-(oxazol-2-yl)pyrimidine-4-carboxamide] | – | – | – | – | 1 (≈ 2.98 µM) | 0.5 | 0.5 (≈ 1.49 µM) |
| O=C(Nc1ncco1)c1ccnc(-c2cccc(Cl)c2)n1 [Compound 84, 2-(3-Chlorophenyl)-N-(oxazol-2-yl)pyrimidine-4-carboxamide] | – | – | – | – | 4 (≈ 13.3 µM) | 1 | 4 (≈ 13.3 µM) |
| O=C(Nc1ncco1)c1ccnc(-c2cccc(C(F)(F)F)c2)n1 [Compound 85, N-(Oxazol-2-yl)-2-(3-(trifluoromethyl)phenyl)pyrimidine-4-carboxamide] | – | – | – | – | 2 (≈ 5.98 µM) | 1 | 2 (≈ 5.98 µM) |
| O=C(Nc1ncco1)c1cncc(-c2ccc(Cl)c(Cl)c2)n1 [Compound 86, 6-(3,4-Dichlorophenyl)-N-(oxazol-2-yl)pyrazine-2-carboxamide] | – | – | – | – | 8 (≈ 23.9 µM) | 0.5 | 4 (≈ 11.9 µM) |
| O=C(Nc1ncco1)c1cc(-c2ccc(Cl)cc2)ccn1 [Compound 88, 4-(4-Chlorophenyl)-N-(oxazol-2-yl)picolinamide] | – | – | – | – | 4 (≈ 13.3 µM) | 32 | 128 (≈ 427 µM) |
| O=C(Nc1ncco1)c1cc(-c2ccc(OC(F)(F)F)cc2)ccn1 [Compound 95, N-(Oxazol-2-yl)-4-(4-(trifluoromethoxy)phenyl)picolinamide] | – | – | – | – | 0.25 (≈ 0.716 µM) | 512 | 128 (≈ 366 µM) |
| O=C(Nc1ncco1)c1cc(-c2cccc(OC(F)(F)F)c2)ccn1 [Compound 96, N-(Oxazol-2-yl)-4-(3-(trifluoromethoxy)phenyl)picolinamide] | – | – | – | – | 0.5 (≈ 1.43 µM) | ≥512 | ≥ 256 |
| O=C(Nc1ncco1)c1ccnc(Oc2cccc(Cl)c2)c1 [Compound 100, 2-(3-Chlorophenoxy)-N-(oxazol-2-yl)isonicotinamide] | – | – | 1 (≈ 3.17 µM) | 2 (≈ 6.33 µM) | – | – | – |
| O=C(Nc1ncco1)c1ccnc(Oc2ccc(F)c(Cl)c2)c1 [Compound 101, 2-(3-Chloro-4-fluorophenoxy)-N-(oxazol-2-yl)isonicotinamide] | – | – | 1 (≈ 3 µM) | 2 (≈ 5.99 µM) | – | – | – |
| O=C(Nc1ncco1)c1ccnc(Oc2ccc(Cl)c(F)c2)c1 [Compound 102, 2-(4-Chloro-3-fluorophenoxy)-N-(oxazol-2-yl)isonicotinamide] | – | – | 1 (≈ 3 µM) | 2 (≈ 5.99 µM) | – | – | – |
| O=C(Nc1ncco1)c1ccnc(Oc2cccc(C(F)(F)F)c2)c1 [Compound 103, N-(Oxazol-2-yl)-2-(3-(trifluoromethyl)phenoxy)isonicotinamide] | – | – | 1 (≈ 2.86 µM) | 1 (≈ 2.86 µM) | – | – | – |
| O=C(Nc1ncco1)c1ccnc(Oc2ccc(OC(F)(F)F)cc2)c1 [Compound 104, N-(Oxazol-2-yl)-2-(4-(trifluoromethoxy)phenoxy)isonicotinamide] | – | – | 1 (≈ 2.74 µM) | 16 (≈ 43.8 µM) | – | – | – |
| O=C(Nc1ncco1)c1ccnc(Oc2cccc(OC(F)(F)F)c2)c1 [Compound 105, N-(Oxazol-2-yl)-2-(3-(trifluoromethoxy)phenoxy)isonicotinamide] | – | – | 1 (≈ 2.74 µM) | 16 (≈ 43.8 µM) | – | – | – |
| C#CCCCCCOC(=O)c1ccc2oc(NC(=O)c3cc(Oc4ccc(F)c(F)c4)ccn3)nc2c1 [Compound 117, Hept-6-yn-1-yl 2-(4-(3,4-difluorophenoxy)picolinamido)benzo[d]oxazole-5-carboxylate] | – | – | 32 (≈ 63.3 µM) | 128 (≈ 253 µM) | – | – | – |
